In patent US20190091163A1, “NANO-SIZED DRUG DELIVERY STRUCTURE” (INSTITUT NATIONAL DE LA SANTE ET DE LA RECHERCHE MEDICALE …, priority 2016, published 2019):

Columns and labels:
[1] = system: SKBR3 cells; assay: Uptake mechanism of GO nanodrug structures with endocytosis inhibitors (flow cytometry); assay type: cell-based, human; conditions: 1 hour pre-incubation with inhibitor, 15 mins with nanoparticles, FIG. 10
Experimental: The uptake mechanism of the GO nanodrug structures was then investigated using various endocytosis inhibitors in comparison with the graphene oxide drug metamaterial described here-above, free of any drug active (GO control).
Different endocytosis inhibitors were tested: • Cytochalasin D, an inhibitor of macropinocytosis-dependent endocytosis in a dosage of 10, 5 and 1 (μM); • Genistein, an inhibitor of caveolae-mediated endocytosis in a dosage of 100, 30 and 25 (μM); and • Chlorpromazine (CMZ), an inhibitor of clathrin-mediated endocytosisin a dosage of 5, 1 and 0.5 (μM).
Cellular internalization of each nanostructure was followed as described here-after.
SKBR3 cells were seeded to a density of 1.0×10^5 cells per well in a 12-well plates followed by an overnight incubation. The cells were rinsed with PBS and pre-incubated with different concentrations of the appropriate endocytic inhibitor in serum-free RPMI 1640 media, for 1 hour. The media was then replaced with the same concentration of inhibitors in serum-containing RPMI 1640 media, the nanoparticles were added and cells were incubated for 15 mins. Following incubation, the medium was removed and cells were rinsed several times with cold PBS. The cells were collected with trypsin EDTA and analyzed using flow cytometry analysis.

[2] = system: SKBR3 cells; assay: Uptake efficiency of GO-HER2 antibody nanodrug structures after preincubation with Lapatinib; assay type: cell-based, human; conditions: SKBR3 cells preincubated with Lapatinib; FIG. 11
Description: Abscissa: amount of Lapatinib (μM). Ordinate: uptake efficiency (%).
Lapatinib is a known HER2 tyrosine kinase inhibitor, which induces stabilization and accumulation of HER2.

[3] = system: MDA-MB-231 (human breast basal epithelial cancer cells); conditions: MDA-MB-231 cells, different concentrations of the peptide; Kawamoto et al. 2013; cited from earlier work

## O=c1c(-c2ccc(O)cc2)coc2cc(O)cc(O)c12 [Genistein]
[1]
  inhibition of internalization (cellular uptake) of GO nanodrug structures: did not show any notable inhibition

## CN(C)CCCN1c2ccccc2Sc2ccc(Cl)cc21 [Chlorpromazine]
[1]
  inhibition of internalization (cellular uptake) of GO nanodrug structures: did not show any notable inhibition

## C=C1[C@@H](C)[C@H]2[C@H](Cc3ccccc3)NC(=O)[C@]23[C@H](OC(C)=O)/C=C/[C@@](C)(O)C(=O)[C@@H](C)C/C=C/[C@H]3[C@@H]1O [Cytochalasin D]
[1]
  inhibition of internalization (cellular uptake) of GO nanodrug structures: significantly inhibited the internalization

## CS(=O)(=O)CCNCc1ccc(-c2ccc3ncnc(Nc4ccc(OCc5cccc(F)c5)c(Cl)c4)c3c2)o1 [Lapatinib]
[2]
  effect on uptake efficiency of GO-HER2 antibody nanodrug structures: dose-dependent reduction in intake

## KLLLKLLKKLLKLLKKK (anti-cancer cationic lytic peptide) [cationic lytic anti-cancer peptide, disintegrates the cell membrane]
[3]
  effect on cell proliferation: dose-dependent reduction in cell proliferation
